Experiment [1] has as its system Human iPS cell-derived intestinal epithelial cells F-hiSIEC. In words: Gene expression of EEC markers in F-hiSIEC cells cultured in culture media of Table 1 (real-time PCR, Day 9). The format is cell-based. The conditions noted are these: LY411575 (composition 4, 1 μmol/L, no EGF) compared with DAPT (composition 6, 10 μmol/L). From the text: (§1) Human iPS cell-derived intestinal epithelial cells (including intestinal stem cells, LGR5+ cells) F-hiSIEC™ (FUJIFILM Corporation) were thawed on the day 0 and seeded at 1.0×10^6 cells/well on a cell culture insert coated with Matrigel™ (Corning Incorporated) by using F-hiSIEC™ Seeding Medium (FUJIFILM Corporation), and then from the next day, the culture medium was exchanged every other day with each culture medium (culture medium compositions 1 to 6) in Table 1. Coating, seeding, and culture medium exchange were carried out according to the F-hiSIEC instruction manual to obtain a cell sheet. The total RNA was extracted from the cells on the Day 9. For RNA extraction, the cells were lysed with Qiazol (QIAGEN), 20% of chloroform was added thereto, mixed, and centrifuged at 12,000 g for 10 minutes to obtain a solution, and the supernatant of the solution was recovered. Total RNA was extracted from the supernatant according to the manual using an RNeasy mini kit (QIAGEN). cDNA was synthesized from the total RNA using a High Capacity RNA-to-cDNA kit (Applied Biosystems) according to the manual. The obtained cDNA was subjected to the measurement of the gene expression level by using a ViiA7 real-time PCR system (Applied Biosystems) with a Taqman Gene Expression Assay system and a Taqman Gene Expression Master Mix (Applied Biosystems). The Taqman Assay ID used were as follows: 18s: 03003631_g1, CHGA: Hs00900370_m1, TPH1: Hs00188220_m1, PYY: Hs00373890_g1, and REG4: Hs00230746_m1.
(§2) Gene expression levels for comparison are indicated in terms of relative value in a case where the expression in the control group cultured in the F-hiSIEC Culture Medium is corrected with the expression level of the internal standard gene 18S according to the […] and then is set to 1.

Experiment [2] shares this test system. As to the kind of experiment: Gene expression of EEC markers in F-hiSIEC cells cultured with LY411575 or DAPT added (culture media of Table 2, real-time PCR, Day 9). It counts as cell-based.
Excerpt: as §1, with “compositions 7” for “compositions 1”, “to 13)” for “to 6)”, “Table 2.” for “Table 1.”, “18s: 03003631_g1.” for “18s: 03003631_g1,”, “CHGA: Hs00900370_m1.” for “CHGA: Hs00900370_m1, TPH1: Hs00188220_m1,”, “and NEUROG3: Hs01875204_s1.” for “and REG4: Hs00230746_m1.”
as §2
In general terms: Real-time PCR tracks product formation cycle by cycle.

Setting [3] is: LY411575 2 μmol/L addition group (culture medium composition 11), among compositions 7 to 13.
[4] abbreviates: LY411575 addition groups (0.5 to 2.0 μmol/L) compared with DAPT addition groups (5 to 10 μmol/L), no EGF, FIG. 2.

1 molecule from US20240279613A1, “METHOD OF PRODUCING ENTEROENDOCRINE CELL, ENTEROENDOCRINE CELL DERIVED FROM PLURIPOTENT STEM CELL, CULTURE MEDIUM OR CULTURE MEDIUM KIT, AND USE THEREOF” (FUJIFILM Corporation, priority 2021, published 2024) can be followed below.

Regarding `C[C@H](NC(=O)[C@@H](O)c1cc(F)cc(F)c1)C(=O)N[C@@H]1C(=O)N(C)c2ccccc2-c2ccccc21` [LY411575], in experiment [1], the “expression of CHGA” value is given as “remarkably high”, the “expression of PYY” value is given as “remarkably high”, the “expression of Reg4” value is on record as “remarkably high” and the “expression of TPH1” value is recorded as “remarkably high”. Further, in experiment [2] (setting [3]), the “expression level of CHGA” value is “highest”, the “expression level of NEUROG3” value is given as “highest” and the “expression level of PYY” value was “highest”. Also, in experiment [2] (setting [4]), the “expression of CHGA” value is “high” and the “expression of PYY” value is given as “remarkably high”.
